From US10098902B2, “Arginase inhibitors as therapeutics” (Mars, Incorporated, priority 2010, dated 2018)

Columns and labels:
human arginase I (ARG I) = human arginase I (ARG I) (Homo sapiens (Human), UniProt P05089); assay: Inhibition of arginase I, spectrophotometric urea assay at 530 nm; format: biochemical; details: potency rank 1-5; pH 7.4, 37° C., 60 minutes
Procedure: (§1) Inhibition of arginase I (ARG I) and arginase II (ARG II) by Formula I or Formula II compounds is followed spectrophotometrically at 530 nm. The compound to be tested was dissolved in DMSO at an initial concentration 50-fold greater than its final concentration in the cuvette. 10 μl of the stock solution was diluted in 90 μl of the assay buffer that comprises 0.1M sodium phosphate buffer containing 130 mM NaCl, pH 7.4, to which is added ovalbumin (OVA) at a concentration of 1 mg/ml. Solutions of arginase I and II were prepared in 100 mM sodium phosphate buffer, pH 7.4 containing 1 mg/ml of OVA to give an arginase stock solution at a final concentration of 100 ng/ml.
(§2) To each well of a 96-well microtiter plate was added 40 μl of enzyme, 10 μl of an inventive compound and 10 μl of enzyme substrate (L-arginine+manganese sulfate). For wells that were used as positive controls, only the enzyme and its substrate were added, while wells used as negative controls contained only manganese sulfate.
(§3) After incubating the microtiter plate at 37° C. for 60 minutes, 150 μl of a urea reagent obtained by combining equal proportions (1:1) of reagents A and B is added to each well of the microtiter plate to stop the reaction. The urea reagent is made just before use by combining Reagent A (10 mM o-phthaldialdehyde, and 0.4% polyoxyethylene (23) lauryl ether (w/v) in 1.8 M sulfuric acid) with Reagent B (1.3 mM primaquine diphosphate, 0.4% polyoxyethylene (23) lauryl ether (w/v), 130 mM boric acid in 3.6 mM sulfuric acid). After quenching the reaction mixture, the microtiter plate is allowed to stand for an additional 10 minutes at room temperature to allow the color to develop. The inhibition of arginase was computed by measuring the optical density (OD) of the reaction mixture at 530 nm and normalizing the OD value to percent inhibition observed in the control. The normalized OD is then used to generate a dose-response curve by plotting the normalized OD values against log [concentration] and using regression analysis to compute the IC50 values.

[1] = target: human arginase II (ARG II) (Homo sapiens (Human), UniProt P78540); assay: Inhibition of arginase II, spectrophotometric urea assay at 530 nm; format: biochemical; details: potency rank 1-5; pH 7.4, 37° C., 60 minutes
Procedure: as §1, §2, §3

Chain of human arginase II (ARG II) (P78540 23-354): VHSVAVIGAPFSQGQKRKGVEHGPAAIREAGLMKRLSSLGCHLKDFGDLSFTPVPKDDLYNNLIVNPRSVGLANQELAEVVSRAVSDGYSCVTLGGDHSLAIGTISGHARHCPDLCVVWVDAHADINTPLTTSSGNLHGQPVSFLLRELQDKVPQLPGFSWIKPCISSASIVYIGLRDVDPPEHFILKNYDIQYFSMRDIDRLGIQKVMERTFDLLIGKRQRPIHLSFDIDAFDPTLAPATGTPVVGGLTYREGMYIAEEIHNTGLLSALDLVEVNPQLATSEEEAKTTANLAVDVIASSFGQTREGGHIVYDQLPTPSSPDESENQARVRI
Chain of human arginase I (ARG I) (P05089 whole entry): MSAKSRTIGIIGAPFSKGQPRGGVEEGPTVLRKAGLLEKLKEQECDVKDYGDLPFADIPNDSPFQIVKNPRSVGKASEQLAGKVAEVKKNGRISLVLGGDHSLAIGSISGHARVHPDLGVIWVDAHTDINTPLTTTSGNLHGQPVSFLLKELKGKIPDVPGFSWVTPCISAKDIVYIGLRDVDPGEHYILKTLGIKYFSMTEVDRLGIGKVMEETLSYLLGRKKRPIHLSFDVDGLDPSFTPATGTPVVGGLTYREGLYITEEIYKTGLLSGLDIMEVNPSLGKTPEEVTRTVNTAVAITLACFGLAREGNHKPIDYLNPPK

N[C@@]1(C(=O)O)CN(C(=O)C2Cc3ccccc3CN2)C[C@@H]1CCCB(O)O (mixture of isomers) [Example 53, (3R,4S)-3-amino-4-(3-boronopropyl)-1-(1,2,3,4-tetrahydroisoquinoline-3-carbonyl)pyrrolidine-3-carboxylic acid]
IC50 (human arginase I (ARG I)): 0.1 to 250 nM | IC50 [1]: 251 to 1000 nM

NC(Cc1ccc(C(F)(F)F)cc1)C(=O)N1C[C@H](CCCB(O)O)[C@](N)(C(=O)O)C1 (mixture of isomers) [Example 54, (3R,4S)-3-amino-1-(2-amino-3-(4-(trifluoromethyl)phenyl)propanoyl)-4-(3-boronopropyl)pyrrolidine-3-carboxylic acid]
IC50 (human arginase I (ARG I)): 251 to 1000 nM | IC50 [1]: 1000 to 2000 nM

NC(Cc1ccccc1)CN1C[C@H](CCCB(O)O)[C@](N)(C(=O)O)C1 (mixture of isomers) [Example 57, (3R,4S)-3-amino-1-(2-amino-3-phenylpropyl)-4-(3-boronopropyl)pyrrolidine-3-carboxylic acid]
IC50 (human arginase I (ARG I)): 0.1 to 250 nM | IC50 [1]: 0.1 to 250 nM

N[C@@]1(C(=O)O)CCC[C@@H]1CCCB(O)O (racemic) [Example 1, (1S,2S)-1-amino-2-(3-boronopropyl)cyclopentanecarboxylic acid]
IC50 (human arginase I (ARG I)): 251 to 1000 nM | IC50 [1]: 251 to 1000 nM

N[C@@]1(C(=O)O)CN(C(=O)c2ccc(F)cc2)C[C@@H]1CCCB(O)O (racemic) [Example 46, (3R,4S)-3-amino-4-(3-boronopropyl)-1-(4-fluorobenzoyl)pyrrolidine-3-carboxylic acid]
IC50 (human arginase I (ARG I)): 251 to 1000 nM | IC50 [1]: 251 to 1000 nM

N[C@@]1(C(=O)O)CN(C(=O)Nc2ccc(F)cc2)C[C@@H]1CCCB(O)O (racemic) [Example 48, (3R,4S)-3-amino-4-(3-boronopropyl)-1-(4-fluorophenylcarbamoyl)pyrrolidine-3-carboxylic acid]
IC50 (human arginase I (ARG I)): 251 to 1000 nM | IC50 [1]: 251 to 1000 nM

N[C@@]1(C(=O)O)C[C@@H](NCc2ccccc2)C[C@@H]1CCCB(O)O (racemic) [Example 62, (1S,2S,4S)-1-amino-4-(benzylamino)-2-(3-boronopropyl)cyclopentanecarboxylic acid]
IC50 (human arginase I (ARG I)): 0.1 to 250 nM | IC50 [1]: 0.1 to 250 nM

CN(C)[C@H]1C[C@H](CCCB(O)O)[C@](N)(C(=O)O)C1 (racemic) [Example 63, (1S,2S,4S)-1-amino-2-(3-boronopropyl)-4-(dimethylamino)cyclopentanecarboxylic acid]
IC50 (human arginase I (ARG I)): 0.1 to 250 nM | IC50 [1]: 0.1 to 250 nM

NC[C@@H]1C[C@H](CCCB(O)O)[C@](N)(C(=O)O)C1 (racemic) [Example 64, (1S,2S,4R)-1-amino-4-(aminomethyl)-2-(3-boronopropyl)cyclopentanecarboxylic acid]
IC50 (human arginase I (ARG I)): 0.1 to 250 nM | IC50 [1]: 0.1 to 250 nM

NC[C@H]1C[C@H](CCCB(O)O)[C@](N)(C(=O)O)C1 (racemic) [Example 65, (1S,2S,4S)-1-amino-4-(aminomethyl)-2-(3-boronopropyl)cyclopentanecarboxylic acid]
IC50 (human arginase I (ARG I)): 251 to 1000 nM | IC50 [1]: 1000 to 2000 nM

NCC[C@H]1C[C@H](CCCB(O)O)[C@](N)(C(=O)O)C1 (racemic) [Example 66, (1S,2S,4R)-1-amino-4-(2-aminoethyl)-2-(3-boronopropyl)cyclopentanecarboxylic acid]
IC50 (human arginase I (ARG I)): 0.1 to 250 nM | IC50 [1]: 0.1 to 250 nM

N[C@@]1(C(=O)O)CCC[C@H]1CCCB(O)O [Example 2, (1S,2R)-1-amino-2-(3-boronopropyl)cyclopentanecarboxylic acid]
IC50 (human arginase I (ARG I)): > 5000 nM | IC50 [1]: > 5000 nM

N[C@@]1(C(=O)O)CCO[C@@H]1CCCB(O)O [Example 3, (2R,3S)-3-amino-2-(3-boronopropyl)tetrahydrofuran-3-carboxylic acid]
IC50 (human arginase I (ARG I)): 1000 to 2000 nM | IC50 [1]: 2000 to 5000 nM

N[C@@]1(C(=O)O)CCO[C@H]1CCCB(O)O [Example 4, (2S,3S)-3-amino-2-(3-boronopropyl)tetrahydrofuran-3-carboxylic acid]
IC50 (human arginase I (ARG I)): 0.1 to 250 nM | IC50 [1]: 0.1 to 250 nM

NC1(C(=O)O)CCSC1CCCB(O)O (stereo not drawn) [Example 5, 3-amino-2-(3-boronopropyl)tetrahydrothiophene-3-carboxylic acid]
IC50 (human arginase I (ARG I)): 1000 to 2000 nM | IC50 [1]: 2000 to 5000 nM

N[C@@]1(C(=O)O)CCNC[C@H]1CCCB(O)O [Example 6, (3R,4S)-4-amino-3-(3-boronopropyl)piperidine-4-carboxylic acid]
IC50 (human arginase I (ARG I)): 251 to 1000 nM | IC50 [1]: 2000 to 5000 nM

N[C@@]1(C(=O)O)CCNC[C@@H]1CCCB(O)O [Example 7, (3S,4S)-4-amino-3-(3-boronopropyl)piperidine-4-carboxylic acid]
IC50 (human arginase I (ARG I)): 251 to 1000 nM | IC50 [1]: 251 to 1000 nM

N[C@@]1(C(=O)O)CNC[C@@H]1CCCB(O)O [Example 8, (3R,4S)-3-amino-4-(3-boronopropyl)pyrrolidine-3-carboxylic acid]
IC50 (human arginase I (ARG I)): 251 to 1000 nM | IC50 [1]: 251 to 1000 nM

N[C@@]1(C(=O)O)CNC[C@H]1CCCB(O)O [Example 9, (3R,4R)-3-amino-4-(3-boronopropyl)pyrrolidine-3-carboxylic acid]
IC50 (human arginase I (ARG I)): 1000 to 2000 nM | IC50 [1]: 1000 to 2000 nM

N[C@@]1(C(=O)O)CCN[C@@H]1CCCB(O)O [Example 10, (2R,3S)-3-amino-2-(3-boronopropyl)pyrrolidine-3-carboxylic acid]
IC50 (human arginase I (ARG I)): > 5000 nM | IC50 [1]: > 5000 nM

CC(C)CN1C[C@H](CCCB(O)O)[C@](N)(C(=O)O)C1 [Example 11, (3R,4S)-3-amino-4-(3-boronopropyl)-1-isobutylpyrrolidine-3-carboxylic acid]
IC50 (human arginase I (ARG I)): 251 to 1000 nM | IC50 [1]: 1000 to 2000 nM

N[C@@]1(C(=O)O)CN(Cc2ccccc2)C[C@@H]1CCCB(O)O [Example 12, (3R,4S)-3-amino-1-benzyl-4-(3-boronopropyl)pyrrolidine-3-carboxylic acid]
IC50 (human arginase I (ARG I)): 251 to 1000 nM | IC50 [1]: 1000 to 2000 nM

N[C@@]1(C(=O)O)CN(Cc2cccnc2)C[C@@H]1CCCB(O)O [Example 13, (3R,4S)-3-amino-4-(3-boronopropyl)-1-(pyridin-3-ylmethyl)pyrrolidine-3-carboxylic acid]
IC50 (human arginase I (ARG I)): 251 to 1000 nM | IC50 [1]: 1000 to 2000 nM

NC1CCCC1N1C[C@H](CCCB(O)O)[C@](N)(C(=O)O)C1 (stereo partly drawn) [Example 14, (3R,4S)-3-amino-1-(2-aminocyclopentyl)-4-(3-boronopropyl)pyrrolidine-3-carboxylic acid]
IC50 (human arginase I (ARG I)): 0.1 to 250 nM | IC50 [1]: 0.1 to 250 nM

N[C@@]1(C(=O)O)CN(CC2CCNCC2)C[C@@H]1CCCB(O)O [Example 15]
IC50 (human arginase I (ARG I)): 251 to 1000 nM | IC50 [1]: 1000 to 2000 nM

N[C@@]1(C(=O)O)CN(CCCc2ccc(C(=O)O)cc2)C[C@@H]1CCCB(O)O [Example 16, (3R,4S)-3-amino-4-(3-boronopropyl)-1-(3-(4-carboxyphenyl)propyl)pyrrolidine-3-carboxylic acid]
IC50 (human arginase I (ARG I)): 0.1 to 250 nM | IC50 [1]: 0.1 to 250 nM

CN(C)CC(C)(C)CN1C[C@H](CCCB(O)O)[C@](N)(C(=O)O)C1 [Example 17, (3R,4S)-3-amino-4-(3-boronopropyl)-1-(3-(dimethylamino)-2,2-dimethylpropyl)pyrrolidine-3-carboxylic acid]
IC50 (human arginase I (ARG I)): 2000 to 5000 nM

N[C@@]1(C(=O)O)CN(CC2CCCNC2)C[C@@H]1CCCB(O)O (stereo partly drawn) [Example 18, (3R,4S)-3-amino-4-(3-boronopropyl)-1-(piperidin-3-ylmethyl)pyrrolidine-3-carboxylic acid]
IC50 (human arginase I (ARG I)): 0.1 to 250 nM | IC50 [1]: 251 to 1000 nM

N[C@@]1(C(=O)O)CN(Cc2ccnc3ccccc23)C[C@@H]1CCCB(O)O [Example 19, (3R,4S)-3-amino-4-(3-boronopropyl)-1-(quinolin-4-ylmethyl)pyrrolidine-3-carboxylic acid]
IC50 (human arginase I (ARG I)): 251 to 1000 nM | IC50 [1]: 251 to 1000 nM
